Active and inactive are the calls of the source. No cut-off for these calls is given here.
Tests used:
MIA PaCa-2 [1] = experiment: Preferential cytotoxicity against human MIA PaCa-2 cells in nutrient-deprived medium measured after 24 hrs by WST-8 cell counting analysis; type: functional
MIA PaCa-2 [2] = experiment: Preferential cytotoxicity against human MIA PaCa-2 cells in nutrient-deprived medium assessed as alteration in cell morphology by measuring cell rounding at 5 uM measured after 24 hrs by acridine orange and ethidium bromide dual fluorescent staining based imaging analysis; type: functional
PANC-1 [3] = experiment: Inhibition of Akt/mTOR signaling pathway in human PANC-1 cells in nutrient-deprived medium assessed as reduction in AKT phosphorylation at S473 residue measured after 6 hrs by Western blot analysis; type: cell-based; details: dose 5-20 µM
MIA PaCa-2 [4] = experiment: Antitumor activity against human MIA PaCa-2 cells xenografted in athymic BALB/c-nu mouse assessed as tumor growth inhibition at 10 mg/kg/day, ip administered five times per week for 4 weeks relative to control; type: functional; details: MIA PaCa-2, 672 h, read-out: TGI
MIA PaCa-2 [5] = experiment: Antitumor activity against human MIA PaCa-2 cells xenografted in athymic BALB/c-nu mouse assessed as fold change in cytidine level in tumor at 10 mg/kg/day, ip administered five times per week for 4 weeks by LC-MS analysis; type: functional
PANC-1 [6] = experiment: Preferential cytotoxicity against human PANC-1 cells in nutrient-deprived medium assessed as alteration in cell morphology by measuring cell blebbing at 5 uM measured after 24 hrs by acridine orange and ethidium bromide dual fluorescent staining based imaging analysis; type: functional
PANC-1 [7] = experiment: Preferential cytotoxicity against human PANC-1 cells in nutrient-deprived medium assessed as alteration in cell morphology by measuring rupture of cell membrane at 5 uM measured after 24 hrs by acridine orange and ethidium bromide dual fluorescent staining based imaging analysis; type: functional
PANC-1 [8] = experiment: Preferential cytotoxicity against human PANC-1 cells in nutrient-deprived medium assessed as alteration in cell morphology by measuring leakage of cell components at 5 uM measured after 24 hrs by acridine orange and ethidium bromide dual fluorescent staining based imaging analysis; type: functional
MIA PaCa-2 [9] = experiment: Preferential cytotoxicity against human MIA PaCa-2 cells in nutrient-deprived medium assessed as alteration in cell morphology by measuring leakage of cell components at 5 uM measured after 24 hrs by acridine orange and ethidium bromide dual fluorescent staining based imaging analysis; type: functional
MIA PaCa-2 [10] = experiment: Antitumor activity against human MIA PaCa-2 cells xenografted in athymic BALB/c-nu mouse assessed as fold change in cytosine level in tumor at 2 mg/kg/day, ip administered five times per week for 4 weeks by LC-MS analysis; type: functional

## COc1cc(O)c(C(=O)[C@@H]2CC=C(CCC=C(C)C)C[C@H]2c2ccccc2)c(O)c1
MIA PaCa-2 [1]
  PC50: 2.9 µM
MIA PaCa-2 [2]
  Activity: Active
PANC-1 [3]
  inhibition: Dose-Dependent Effect
MIA PaCa-2 [4]
  inhibition in vivo at 10 mg/kg/day: 68%
MIA PaCa-2 [5]
  fold change (FC): 0.35
PANC-1 [6]
  Activity: Active
PANC-1 [7]
  Activity: Active
PANC-1 [8]
  Activity: Active
MIA PaCa-2 [9]
  Activity: Active
MIA PaCa-2 [10]
  fold change (FC): 0.73

— ChEMBL document CHEMBL5321213, “Nicolaioidesin C: An Antiausterity Agent Shows Promising Antitumor Activity in a Pancreatic Cancer Xenograft Mouse Model” (J Nat Prod, 2023)
